Target: T1, Human M4 (Homo sapiens, UniProt P08173)
T1 construct: expressed in transfected cells
T1 sequence (P08173 1-479): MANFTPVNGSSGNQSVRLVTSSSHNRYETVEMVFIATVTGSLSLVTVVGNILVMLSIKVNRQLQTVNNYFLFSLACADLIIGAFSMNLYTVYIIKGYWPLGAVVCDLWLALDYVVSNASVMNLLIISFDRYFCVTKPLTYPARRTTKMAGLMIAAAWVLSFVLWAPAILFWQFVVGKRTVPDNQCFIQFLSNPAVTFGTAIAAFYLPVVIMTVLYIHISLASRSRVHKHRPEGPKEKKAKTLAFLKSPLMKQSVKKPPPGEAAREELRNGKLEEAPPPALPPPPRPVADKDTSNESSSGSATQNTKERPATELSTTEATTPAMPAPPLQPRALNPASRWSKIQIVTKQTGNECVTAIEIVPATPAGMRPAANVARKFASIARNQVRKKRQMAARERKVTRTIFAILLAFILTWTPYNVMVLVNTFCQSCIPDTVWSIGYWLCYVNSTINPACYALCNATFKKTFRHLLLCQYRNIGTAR
Test: mAChR M4 cell-based functional assay (calcium flux, potentiation of EC20 acetylcholine response), hM4-Gqi5 CHO-K1 cells
Settings: Table 4; for Emax at 30 µM: CHO-K1, Human M4, % ACh maximum at 30 μM, read-out: Emax (% ACh maximum at 30 μM); for EC50: potentiation of EC20 acetylcholine response, calcium flux, CHO-K1 cells, read-out: Human M4 EC50
Outline: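 CHO-K1 cells stably expressing human M4 with chimeric Gqi5, loaded with Fluo-4 AM 50 min at 37 °C; calcium flux read by FDSS. 11-point 1:3 compound curves added, then EC20 acetylcholine at 144 s; potentiation of the EC20 response fitted by four-parameter logistic to give EC50 and Emax.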

Row | SMILES | Emax at 30 µM [%] | EC50 [nM]
1 | Cc1c(N2CCc3ncc(N4CCO[C@@H](c5ccccc5)C4)cc3C2)nn2c(C(F)(F)F)nnc2c1C [Compound 323, (S)-4-(6-(7,8-dimethyl-3-(trifluoromethyl)-[1,2,4]triazolo[4,3-b]pyridazin-6-yl)-5,6,7,8-tetrahydro-1,6-naphthyridin-3-yl)-2-phenylmorpholine] | 46 | 8910
2 | Cc1cc2nnc(C(F)(F)F)n2nc1N1CCc2ncc(N3CCOc4ncccc43)cc2C1 [Compound 324, 1-(6-(7-methyl-3-(trifluoromethyl)-[1,2,4]triazolo[4,3-b]pyridazin-6-yl)-5,6,7,8-tetrahydro-1,6-naphthyridin-3-yl)-2,3-dihydro-1H-pyrido[2,3-b][1,4]oxazine] | 111 | 153
3 | Cc1cc2nnc(C(F)(F)F)n2nc1N1CCc2ncc(N3CCCn4nccc43)cc2C1 [Compound 325, 3-(6,7-dihydropyrazolo[1,5-a]pyrimidin-4(5H)-yl)-6-(7-methyl-3-(trifluoromethyl)-[1,2,4]triazolo[4,3-b]pyridazin-6-yl)-5,6,7,8-tetrahydro-1,6-naphthyridine] | 116 | 50
4 | Cc1cc2nnc(C(F)(F)F)n2nc1N1CCc2ncc(N3CCOC(c4ccccn4)C3)cc2C1 (stereo not drawn) [Compound 326, 4-(6-(7-methyl-3-(trifluoromethyl)-[1,2,4]triazolo[4,3-b]pyridazin-6-yl)-5,6,7,8-tetrahydro-1,6-naphthyridin-3-yl)-2-(pyridin-2-yl)morpholine] | 62 | 2080
5 | Cc1c(N2CCc3ncc(N4CCOC(c5ccccn5)C4)cc3C2)nn2c(C(F)(F)F)nnc2c1C (stereo not drawn) [Compound 327, 4-(6-(7,8-dimethyl-3-(trifluoromethyl)-[1,2,4]triazolo[4,3-b]pyridazin-6-yl)-5,6,7,8-tetrahydro-1,6-naphthyridin-3-yl)-2-(pyridin-2-yl)morpholine] | 68 | 1310
6 | Cc1c(N2CCc3ncc(N4CCOC(c5cccnc5)C4)cc3C2)nn2c(C(F)(F)F)nnc2c1C (stereo not drawn) [Compound 328, 4-(6-(7,8-dimethyl-3-(trifluoromethyl)-[1,2,4]triazolo[4,3-b]pyridazin-6-yl)-5,6,7,8-tetrahydro-1,6-naphthyridin-3-yl)-2-(pyridin-3-yl)morpholine] | 76 | 623
7 | Cc1cc2nnc(C(F)(F)F)n2nc1N1CCc2ncc(N3CCOC(c4cccnc4)C3)cc2C1 (stereo not drawn) [Compound 329, 4-(6-(7-methyl-3-(trifluoromethyl)-[1,2,4]triazolo[4,3-b]pyridazin-6-yl)-5,6,7,8-tetrahydro-1,6-naphthyridin-3-yl)-2-(pyridin-3-yl)morpholine] | 80 | 1490
8 | Cc1cc2nncn2nc1N1Cc2cc(N3CCOCC3)cnc2C(C)C1 (stereo not drawn) [Compound 330, 4-(8-methyl-6-(7-methyl-[1,2,4]triazolo[4,3-b]pyridazin-6-yl)-5,6,7,8-tetrahydro-1,6-naphthyridin-3-yl)morpholine] | 83 | 2150
9 | Cc1c(N2Cc3cc(N4CCOCC4)cnc3C(C)C2)nn2cnnc2c1C (stereo not drawn) [Compound 331, 4-(6-(7,8-dimethyl-[1,2,4]triazolo[4,3-b]pyridazin-6-yl)-8-methyl-5,6,7,8-tetrahydro-1,6-naphthyridin-3-yl)morpholine] | 94 | 700
10 | Cc1cc2nncn2nc1N1CCc2ncc(N3CCN(C)C(=O)C3)cc2C1 [Compound 332, 1-methyl-4-(6-(7-methyl-[1,2,4]triazolo[4,3-b]pyridazin-6-yl)-5,6,7,8-tetrahydro-1,6-naphthyridin-3-yl)piperazin-2-one] | 71 | 2590
11 | Cc1c(N2CCc3ncc(N4CCN(C)C(=O)C4)cc3C2)nn2cnnc2c1C [Compound 333, 4-(6-(7,8-dimethyl-[1,2,4]triazolo[4,3-b]pyridazin-6-yl)-5,6,7,8-tetrahydro-1,6-naphthyridin-3-yl)-1-methylpiperazin-2-one] | 52 | 1340
12 | Cc1cc2nncn2nc1N1CCc2ncc(CC(F)(F)F)cc2C1 [Compound 334, 6-(7-methyl-[1,2,4]triazolo[4,3-b]pyridazin-6-yl)-3-(2,2,2-trifluoroethyl)-5,6,7,8-tetrahydro-1,6-naphthyridine] | 74 | 234
13 | Cc1cc2nncn2nc1N1CCc2ncc(C(C)(O)C(F)(F)F)cc2C1 (stereo not drawn) [Compound 335, 1,1,1-trifluoro-2-(6-(7-methyl-[1,2,4]triazolo[4,3-b]pyridazin-6-yl)-5,6,7,8-tetrahydro-1,6-naphthyridin-3-yl)propan-2-ol] | 77 | 1700
14 | CCOC(=O)c1c(C)nc2cc(C)c(N3CCc4ncc(N5CCCn6nccc65)cc4C3)nn12 [Compound 336, ethyl 6-(3-(6,7-dihydropyrazolo[1,5-a]pyrimidin-4(5H)-yl)-7,8-dihydro-1,6-naphthyridin-6(5H)-yl)-2,7-dimethylimidazo[1,2-b]pyridazine-3-carboxylate] | 72 | 359
15 | CCOC(=O)c1c(C)nc2cc(C)c(N3CCc4ncc(C(F)(F)F)cc4C3)nn12 [Compound 337, ethyl 2,7-dimethyl-6-(3-(trifluoromethyl)-7,8-dihydro-1,6-naphthyridin-6(5H)-yl)imidazo[1,2-b]pyridazine-3-carboxylate] | 61 | 1610
16 | FC(F)(F)c1cnc2c(c1)CN(c1nn3c(C(F)(F)F)nnc3c3ccccc13)CC2 [Compound 338, 3-(trifluoromethyl)-6-(3-(trifluoromethyl)-7,8-dihydro-1,6-naphthyridin-6(5H)-yl)-[1,2,4]triazolo[3,4-a]phthalazine] | 84 | 5400
17 | CCOC(=O)c1c(C)nc2c(C)c(C)c(N3CCc4ncc(C(F)(F)F)cc4C3)nn12 [Compound 339, Ethyl 2,7,8-trimethyl-6-(3-(trifluoromethyl)-7,8-dihydro-1,6-naphthyridin-6(5H)-yl)imidazo[1,2-b]pyridazine-3-carboxylate] | 67 | 1900
18 | Cc1cc2cncn2nc1N1CCc2ncc(C(F)(F)F)cc2C1 [Compound 340, 6-(3-methylimidazo[1,5-b]pyridazin-2-yl)-3-(trifluoromethyl)-5,6,7,8-tetrahydro-1,6-naphthyridine] | 84 | 431
19 | Cc1cc2cnc(C)n2nc1N1CCc2ncc(C(F)(F)F)cc2C1 [Compound 341, 6-(3,7-dimethylimidazo[1,5-b]pyridazin-2-yl)-3-(trifluoromethyl)-5,6,7,8-tetrahydro-1,6-naphthyridine] | 63 | 521
20 | Cc1cc2cncn2nc1N1CCc2ncc(-c3cn(C)nc3C)cc2C1 [Compound 342, 3-(1,3-dimethyl-1H-pyrazol-4-yl)-6-(3-methylimidazo[1,5-b]pyridazin-2-yl)-5,6,7,8-tetrahydro-1,6-naphthyridine] | 81 | 492
21 | c1cc2n(n1)CCCN2c1cnc2c(c1)CN(c1nn3cnnc3c3c1CCCC3)CC2 [Compound 344, 6-(3-(6,7-dihydropyrazolo[1,5-a]pyrimidin-4(5H)-yl)-7,8-dihydro-1,6-naphthyridin-6(5H)-yl)-7,8,9,10-tetrahydro-[1,2,4]triazolo[3,4-a]phthalazine] | 73 | 547

Source: patent US20250002507A1, “7,8-DIHYDRO-5H-1,6-NAPHTHYRIDINE DERIVATIVES AS POSITIVE ALLOSTERIC MODULATORS OF THE MUSCARINIC ACETYLCHOLINE RECEPTOR M4 FOR TREATING NEUROLOGICAL AND PSYCHIATRIC DISORDERS” (Vanderbilt University, priority 2021, published 2025)
